Data taken from ChEMBL document CHEMBL3297661, “1-Substituted-5-[(3,5-dinitrobenzyl)sulfanyl]-1H-tetrazoles and their isosteric analogs: A new class of selective antitubercular agents active against drug-susceptible and multidrug-resistant mycobacteria” (Eur J Med Chem, 2014).
≈ marks a conversion by molar mass, not a printed value.

What was measured:
Format in all cases: functional
[1] = system: Mycobacterium tuberculosis; experiment: Antimycobacterial activity against multidrug-resistant Mycobacterium tuberculosis 9449/2007 after 7 days by micromethod
[2] = system: Mycobacterium tuberculosis; experiment: Antimycobacterial activity against multidrug-resistant Mycobacterium tuberculosis Praha 4 after 7 days by micromethod
[3] = system: Mycobacterium tuberculosis; experiment: Antimycobacterial activity against multidrug-resistant Mycobacterium tuberculosis 234/2005 after 7 days by micromethod
[4] = system: Mycobacterium tuberculosis; experiment: Antimycobacterial activity against multidrug-resistant Mycobacterium tuberculosis Praha 131 after 7 days by micromethod
[5] = system: Mycobacterium tuberculosis; experiment: Antimycobacterial activity against multidrug-resistant Mycobacterium tuberculosis 8666/2010 after 7 days by micromethod
[6] = system: Mycobacterium tuberculosis; experiment: Antimycobacterial activity against multidrug-resistant Mycobacterium tuberculosis Praha 1 after 7 days by micromethod
[7] = system: Mycobacterium tuberculosis; experiment: Antimycobacterial activity against multidrug-resistant Mycobacterium tuberculosis 234/2005 after 14 days by micromethod; details: 234/2005, 336 h
[8] = system: Mycobacterium tuberculosis; experiment: Antimycobacterial activity against multidrug-resistant Mycobacterium tuberculosis Praha 1 after 14 days by micromethod; details: Praha 1, 336 h
[9] = system: Mycobacterium tuberculosis; experiment: Antimycobacterial activity against multidrug-resistant Mycobacterium tuberculosis Praha 4 after 14 days by micromethod; details: Praha 4, 336 h
[10] = system: Mycobacterium tuberculosis; experiment: Antimycobacterial activity against multidrug-resistant Mycobacterium tuberculosis 8666/2010 after 14 days by micromethod; details: 8666/2010, 336 h
[11] = system: Mycobacterium tuberculosis; experiment: Antimycobacterial activity against multidrug-resistant Mycobacterium tuberculosis Praha 131 after 14 days by micromethod; details: Praha 131, 336 h
[12] = system: Mycobacterium tuberculosis; experiment: Antimycobacterial activity against multidrug-resistant Mycobacterium tuberculosis 9449/2007 after 14 days by micromethod; details: 9449/2007, 336 h

| Compound | MIC ([1]; 9449/2007, 168 h) [µM] | MIC ([2]; Praha 4, 168 h) [µM] | MIC ([3]; 234/2005, 168 h) [µM] | MIC ([4]; Praha 131, 168 h) [µM] | MIC ([5]; 8666/2010, 168 h) [µM] | MIC ([6]; Praha 1, 168 h) [µM] | MIC [7] [µM] | MIC [8] [µM] | MIC [9] [µM] | MIC [10] [µM] | MIC [11] [µM] | MIC [12] [µM] | MIC [1] [µM] | MIC [2] [µM] | MIC [3] [µM] | MIC [4] [µM] | MIC [5] [µM] | MIC [6] [µM] |
| --- | --- | --- | --- | --- | --- | --- | --- | --- | --- | --- | --- | --- | --- | --- | --- | --- | --- | --- |
| CC[C@@H](CO)NCCN[C@@H](CC)CO [ETHAMBUTOL] | 16 (≈ 3.27 µg/mL) | 0.5 (≈ 0.102 µg/mL) | > 32 | 0.5 (≈ 0.102 µg/mL) | > 8 | 2 (≈ 0.409 µg/mL) | – | – | – | – | – | – | – | – | – | – | – | – |
| COc1ccc(-n2nnnc2[Se]Cc2cc([N+](=O)[O-])cc([N+](=O)[O-])c2)cc1 | 1 (≈ 0.435 µg/mL) | 1 (≈ 0.435 µg/mL) | 1 (≈ 0.435 µg/mL) | 1 (≈ 0.435 µg/mL) | 0.5 (≈ 0.218 µg/mL) | 1 (≈ 0.435 µg/mL) | 1 (≈ 0.435 µg/mL) | 0.5 (≈ 0.218 µg/mL) | 0.5 (≈ 0.218 µg/mL) | 0.5 (≈ 0.218 µg/mL) | 1 (≈ 0.435 µg/mL) | 1 (≈ 0.435 µg/mL) | – | – | – | – | – | – |
| O=[N+]([O-])c1cc(CSc2nnnn2C2CCCCC2)cc([N+](=O)[O-])c1 | 1 (≈ 0.364 µg/mL) | 1 (≈ 0.364 µg/mL) | 1 (≈ 0.364 µg/mL) | 1 (≈ 0.364 µg/mL) | 0.5 (≈ 0.182 µg/mL) | 1 (≈ 0.364 µg/mL) | 0.5 (≈ 0.182 µg/mL) | 1 (≈ 0.364 µg/mL) | 0.5 (≈ 0.182 µg/mL) | 0.5 (≈ 0.182 µg/mL) | 1 (≈ 0.364 µg/mL) | 1 (≈ 0.364 µg/mL) | – | – | – | – | – | – |
| O=[N+]([O-])c1cc(C[Se]c2nnnn2C2CCCCC2)cc([N+](=O)[O-])c1 | 1 (≈ 0.411 µg/mL) | 1 (≈ 0.411 µg/mL) | 1 (≈ 0.411 µg/mL) | 1 (≈ 0.411 µg/mL) | 0.5 (≈ 0.206 µg/mL) | 1 (≈ 0.411 µg/mL) | 0.5 (≈ 0.206 µg/mL) | 0.5 (≈ 0.206 µg/mL) | 0.5 (≈ 0.206 µg/mL) | 0.5 (≈ 0.206 µg/mL) | 0.5 (≈ 0.206 µg/mL) | 0.5 (≈ 0.206 µg/mL) | – | – | – | – | – | – |
| GENTAMICIN | – | – | – | – | – | – | – | – | – | – | – | – | 16 | 2 | > 32 | 0.5 | > 8 | 16 |
| CO[C@H]1/C=C/O[C@@]2(C)Oc3c(C)c(O)c4c(O)c(c(/C=N/N5CCN(C)CC5)c(O)c4c3C2=O)NC(=O)/C(C)=C\C=C\[C@H](C)[C@H](O)[C@@H](C)[C@@H](O)[C@@H](C)[C@H](OC(C)=O)[C@@H]1C [RIFAMPIN] | 16 (≈ 13.2 µg/mL) | > 8 | 16 (≈ 13.2 µg/mL) | 2 (≈ 1.65 µg/mL) | > 8 | 1 (≈ 0.823 µg/mL) | – | – | – | – | – | – | – | – | – | – | – | – |
| CC1COc2c(N3CCN(C)CC3)c(F)cc3c(=O)c(C(=O)O)cn1c23 (stereo unspecified) [OFLOXACIN] | 16 (≈ 5.78 µg/mL) | 0.125 (≈ 0.0452 µg/mL) | > 32 | 0.5 (≈ 0.181 µg/mL) | > 8 | > 16 | – | – | – | – | – | – | – | – | – | – | – | – |
| NCC[C@H](O)C(=O)N[C@@H]1C[C@H](N)[C@@H](O[C@H]2O[C@H](CN)[C@@H](O)[C@H](O)[C@H]2O)[C@H](O)[C@H]1O[C@H]1O[C@H](CO)[C@@H](O)[C@H](N)[C@H]1O [AMIKACIN] | 32 (≈ 18.7 µg/mL) | 0.5 (≈ 0.293 µg/mL) | 32 (≈ 18.7 µg/mL) | > 32 | > 8 | 2 (≈ 1.17 µg/mL) | – | – | – | – | – | – | – | – | – | – | – | – |
| CC(C)/N=c1\cc2n(-c3ccc(Cl)cc3)c3ccccc3nc-2cc1Nc1ccc(Cl)cc1 [CLOFAZIMINE] | 8 (≈ 3.79 µg/mL) | 0.125 (≈ 0.0592 µg/mL) | 16 (≈ 7.57 µg/mL) | 1 (≈ 0.473 µg/mL) | > 8 | 0.25 (≈ 0.118 µg/mL) | – | – | – | – | – | – | – | – | – | – | – | – |
| CCCCCCn1nnnc1[Se]Cc1cc([N+](=O)[O-])cc([N+](=O)[O-])c1 | 1 (≈ 0.413 µg/mL) | 1 (≈ 0.413 µg/mL) | 1 (≈ 0.413 µg/mL) | 1 (≈ 0.413 µg/mL) | 0.5 (≈ 0.207 µg/mL) | 1 (≈ 0.413 µg/mL) | 0.5 (≈ 0.207 µg/mL) | 0.5 (≈ 0.207 µg/mL) | 0.5 (≈ 0.207 µg/mL) | 0.25 (≈ 0.103 µg/mL) | 0.5 (≈ 0.207 µg/mL) | 0.5 (≈ 0.207 µg/mL) | – | – | – | – | – | – |
| NNC(=O)c1ccncc1 [ISONIAZID] | 16 (≈ 2.19 µg/mL) | 1 (≈ 0.137 µg/mL) | > 32 | 0.25 (≈ 0.0343 µg/mL) | 32 (≈ 4.39 µg/mL) | 8 (≈ 1.1 µg/mL) | – | – | – | – | – | – | – | – | – | – | – | – |
| CN[C@@H]1[C@H](O[C@H]2[C@H](O[C@H]3[C@H](O)[C@@H](O)[C@H](N=C(N)N)[C@@H](O)[C@@H]3N=C(N)N)O[C@@H](C)[C@]2(O)C=O)O[C@@H](CO)[C@H](O)[C@H]1O [STREPTOMYCIN] | 64 (≈ 37.2 µg/mL) | 1 (≈ 0.582 µg/mL) | 32 (≈ 18.6 µg/mL) | 0.5 (≈ 0.291 µg/mL) | 16 (≈ 9.31 µg/mL) | 0.5 (≈ 0.291 µg/mL) | – | – | – | – | – | – | – | – | – | – | – | – |
